Source: ChEMBL document CHEMBL2417377, “Hit-to-lead optimization and kinase selectivity of imidazo[1,2-a]quinoxalin-4-amine derived JNK1 inhibitors” (Bioorg Med Chem Lett, 2013)

What was measured:
Settings in all cases: PC-3
[1] = target: T1, MAP/microtubule affinity-regulating kinase 4 (Homo sapiens) (UniProt Q96L34); assay: Inhibition of MARK4 in human PC3 cell lysates at 10 uM using desthiobiotin-tagged ATP probe AX9989 followed by trypsinization by LC/MS analysis
T1 sequence (whole entry): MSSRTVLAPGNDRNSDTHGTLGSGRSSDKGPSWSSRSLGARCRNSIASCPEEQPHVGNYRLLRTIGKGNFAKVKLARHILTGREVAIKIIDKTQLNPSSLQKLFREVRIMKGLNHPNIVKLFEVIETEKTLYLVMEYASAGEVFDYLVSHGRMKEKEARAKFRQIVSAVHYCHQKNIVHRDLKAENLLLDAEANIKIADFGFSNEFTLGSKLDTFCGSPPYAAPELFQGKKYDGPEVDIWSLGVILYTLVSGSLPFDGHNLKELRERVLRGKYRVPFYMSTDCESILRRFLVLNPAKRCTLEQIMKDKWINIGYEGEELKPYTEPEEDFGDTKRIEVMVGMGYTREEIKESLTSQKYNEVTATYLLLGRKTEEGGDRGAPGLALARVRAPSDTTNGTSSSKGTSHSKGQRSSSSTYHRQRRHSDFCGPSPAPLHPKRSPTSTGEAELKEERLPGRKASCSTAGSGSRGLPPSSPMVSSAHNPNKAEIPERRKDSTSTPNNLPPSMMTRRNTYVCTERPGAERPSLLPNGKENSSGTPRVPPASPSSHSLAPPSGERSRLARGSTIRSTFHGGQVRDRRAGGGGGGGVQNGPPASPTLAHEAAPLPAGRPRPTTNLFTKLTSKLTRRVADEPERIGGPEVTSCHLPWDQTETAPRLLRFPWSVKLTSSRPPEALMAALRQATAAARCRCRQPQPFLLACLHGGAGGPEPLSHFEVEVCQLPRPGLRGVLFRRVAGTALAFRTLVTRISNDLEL

[2] = target: T2, Mitogen-activated protein kinase kinase kinase 2 (Homo sapiens) (UniProt Q9Y2U5); assay: Inhibition of MAP3K2 in human PC3 cell lysates at 10 uM using desthiobiotin-tagged ATP probe AX9989 followed by trypsinization by LC/MS analysis
T2 sequence (whole entry): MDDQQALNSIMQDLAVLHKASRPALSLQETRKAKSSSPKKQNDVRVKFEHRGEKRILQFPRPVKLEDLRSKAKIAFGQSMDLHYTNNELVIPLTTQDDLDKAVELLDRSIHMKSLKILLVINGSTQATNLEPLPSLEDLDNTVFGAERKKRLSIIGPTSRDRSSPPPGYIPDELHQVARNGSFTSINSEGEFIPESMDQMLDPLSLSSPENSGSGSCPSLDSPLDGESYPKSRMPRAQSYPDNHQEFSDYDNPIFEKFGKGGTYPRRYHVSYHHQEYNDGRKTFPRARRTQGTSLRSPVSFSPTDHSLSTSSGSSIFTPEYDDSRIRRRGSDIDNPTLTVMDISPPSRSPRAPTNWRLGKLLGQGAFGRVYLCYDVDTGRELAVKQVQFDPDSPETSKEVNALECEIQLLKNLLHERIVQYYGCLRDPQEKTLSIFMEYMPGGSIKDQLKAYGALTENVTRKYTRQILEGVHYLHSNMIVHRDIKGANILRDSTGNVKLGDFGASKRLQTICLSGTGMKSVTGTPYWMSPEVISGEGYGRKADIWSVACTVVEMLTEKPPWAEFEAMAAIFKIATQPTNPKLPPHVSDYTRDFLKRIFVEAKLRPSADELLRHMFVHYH

[3] = target: Tyrosine-protein kinase Fyn (Homo sapiens) (UniProt P06241); assay: Inhibition of FYN in human PC3 cell lysates at 10 uM using desthiobiotin-tagged ATP probe AX9989 followed by trypsinization by LC/MS analysis
Chain of Tyrosine-protein kinase Fyn (Homo sapiens) (P06241 2-537 limits assumed): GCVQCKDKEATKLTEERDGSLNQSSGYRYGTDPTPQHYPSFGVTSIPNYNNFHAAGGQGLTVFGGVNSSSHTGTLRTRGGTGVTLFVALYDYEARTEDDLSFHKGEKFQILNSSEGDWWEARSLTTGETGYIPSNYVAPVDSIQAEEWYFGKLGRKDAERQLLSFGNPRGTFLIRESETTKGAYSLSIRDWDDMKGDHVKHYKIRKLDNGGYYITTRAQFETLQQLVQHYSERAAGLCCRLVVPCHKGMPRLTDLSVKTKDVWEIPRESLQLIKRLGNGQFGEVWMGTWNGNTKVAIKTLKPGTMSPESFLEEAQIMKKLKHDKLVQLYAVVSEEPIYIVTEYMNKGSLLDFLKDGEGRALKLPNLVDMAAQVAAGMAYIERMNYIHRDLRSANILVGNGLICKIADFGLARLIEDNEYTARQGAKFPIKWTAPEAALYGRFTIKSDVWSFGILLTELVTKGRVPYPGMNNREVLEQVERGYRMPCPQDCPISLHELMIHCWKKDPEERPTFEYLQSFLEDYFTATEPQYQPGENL

[4] = target: Mitogen-activated protein kinase 3 (Homo sapiens) (UniProt P27361); assay: Inhibition of Erk1 in human PC3 cell lysates at 10 uM using desthiobiotin-tagged ATP probe AX9989 followed by trypsinization by LC/MS analysis
Chain of Mitogen-activated protein kinase 3 (Homo sapiens) (P27361 whole entry): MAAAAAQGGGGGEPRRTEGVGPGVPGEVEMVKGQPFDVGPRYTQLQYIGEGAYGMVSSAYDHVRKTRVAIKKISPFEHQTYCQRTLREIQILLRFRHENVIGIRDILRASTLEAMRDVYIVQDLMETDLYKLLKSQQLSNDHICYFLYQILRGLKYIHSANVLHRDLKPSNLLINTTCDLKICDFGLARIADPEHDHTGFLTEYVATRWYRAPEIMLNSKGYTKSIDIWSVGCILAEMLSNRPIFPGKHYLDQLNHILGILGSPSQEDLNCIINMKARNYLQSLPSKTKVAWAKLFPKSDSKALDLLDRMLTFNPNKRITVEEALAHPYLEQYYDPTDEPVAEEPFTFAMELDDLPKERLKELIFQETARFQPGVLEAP

[5] = target: T3, Ephrin type-B receptor 4 (Homo sapiens) (UniProt P54760); assay: Inhibition of EphB4 in human PC3 cell lysates at 10 uM using desthiobiotin-tagged ATP probe AX9989 followed by trypsinization by LC/MS analysis
T3 sequence (whole entry): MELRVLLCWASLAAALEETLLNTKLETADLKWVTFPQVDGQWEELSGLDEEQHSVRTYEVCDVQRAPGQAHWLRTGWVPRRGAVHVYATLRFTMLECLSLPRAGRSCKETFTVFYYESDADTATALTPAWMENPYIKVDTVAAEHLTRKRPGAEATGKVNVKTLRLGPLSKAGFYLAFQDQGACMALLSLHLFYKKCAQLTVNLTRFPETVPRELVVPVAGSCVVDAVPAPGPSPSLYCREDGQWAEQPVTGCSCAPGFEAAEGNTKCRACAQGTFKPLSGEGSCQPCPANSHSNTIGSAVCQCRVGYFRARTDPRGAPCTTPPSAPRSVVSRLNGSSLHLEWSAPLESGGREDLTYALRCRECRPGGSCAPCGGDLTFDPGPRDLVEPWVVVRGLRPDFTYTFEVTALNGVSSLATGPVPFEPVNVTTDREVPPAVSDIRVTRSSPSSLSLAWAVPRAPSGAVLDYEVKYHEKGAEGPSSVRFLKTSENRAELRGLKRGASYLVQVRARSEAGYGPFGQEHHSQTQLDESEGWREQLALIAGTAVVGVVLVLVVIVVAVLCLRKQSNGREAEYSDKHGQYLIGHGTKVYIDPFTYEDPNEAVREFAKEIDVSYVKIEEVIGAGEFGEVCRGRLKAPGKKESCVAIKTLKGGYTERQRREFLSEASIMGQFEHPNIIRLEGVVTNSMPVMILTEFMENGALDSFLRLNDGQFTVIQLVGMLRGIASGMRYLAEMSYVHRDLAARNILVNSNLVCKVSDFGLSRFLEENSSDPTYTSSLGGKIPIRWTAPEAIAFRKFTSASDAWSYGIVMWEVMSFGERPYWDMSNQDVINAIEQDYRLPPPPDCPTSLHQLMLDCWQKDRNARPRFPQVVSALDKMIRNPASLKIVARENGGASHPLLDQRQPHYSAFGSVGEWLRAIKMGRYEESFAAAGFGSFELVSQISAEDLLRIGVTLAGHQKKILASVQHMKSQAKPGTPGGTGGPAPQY

[6] = target: Serine/threonine-protein kinase PRP4 homolog (Homo sapiens) (UniProt Q13523); assay: Inhibition of PRP4 in human PC3 cell lysates at 10 uM using desthiobiotin-tagged ATP probe AX9989 followed by trypsinization by LC/MS analysis
Chain of Serine/threonine-protein kinase PRP4 homolog (Homo sapiens) (Q13523 whole entry): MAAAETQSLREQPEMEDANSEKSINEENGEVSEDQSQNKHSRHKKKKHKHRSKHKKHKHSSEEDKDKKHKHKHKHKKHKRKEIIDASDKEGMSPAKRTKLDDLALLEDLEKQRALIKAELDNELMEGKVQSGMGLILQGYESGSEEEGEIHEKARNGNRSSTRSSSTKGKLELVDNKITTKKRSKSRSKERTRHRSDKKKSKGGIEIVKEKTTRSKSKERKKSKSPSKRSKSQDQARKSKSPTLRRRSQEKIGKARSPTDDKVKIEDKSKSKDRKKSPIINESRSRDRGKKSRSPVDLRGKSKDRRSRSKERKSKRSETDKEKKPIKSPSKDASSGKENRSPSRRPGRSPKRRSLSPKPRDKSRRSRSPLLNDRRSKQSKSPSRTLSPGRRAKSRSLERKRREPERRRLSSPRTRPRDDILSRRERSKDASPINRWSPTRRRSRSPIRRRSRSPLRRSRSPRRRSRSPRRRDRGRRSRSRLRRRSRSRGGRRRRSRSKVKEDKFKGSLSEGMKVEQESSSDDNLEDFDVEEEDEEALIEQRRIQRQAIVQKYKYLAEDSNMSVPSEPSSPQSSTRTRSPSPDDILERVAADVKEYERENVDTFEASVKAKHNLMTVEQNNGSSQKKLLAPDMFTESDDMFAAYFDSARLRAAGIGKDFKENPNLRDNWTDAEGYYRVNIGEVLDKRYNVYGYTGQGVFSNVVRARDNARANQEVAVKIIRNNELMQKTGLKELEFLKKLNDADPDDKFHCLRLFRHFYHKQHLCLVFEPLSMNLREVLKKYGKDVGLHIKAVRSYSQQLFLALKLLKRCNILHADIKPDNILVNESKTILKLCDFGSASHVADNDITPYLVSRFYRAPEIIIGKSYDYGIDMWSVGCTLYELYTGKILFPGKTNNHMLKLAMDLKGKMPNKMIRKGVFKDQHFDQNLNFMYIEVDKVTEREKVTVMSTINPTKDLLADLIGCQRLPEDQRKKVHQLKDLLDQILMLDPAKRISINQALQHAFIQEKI

[7] = target: Serine/threonine-protein kinase Nek6 (Homo sapiens) (UniProt Q9HC98); assay: Inhibition of NEK6 in human PC3 cell lysates at 10 uM using desthiobiotin-tagged ATP probe AX9989 followed by trypsinization by LC/MS analysis
Chain of Serine/threonine-protein kinase Nek6 (Homo sapiens) (Q9HC98 whole entry): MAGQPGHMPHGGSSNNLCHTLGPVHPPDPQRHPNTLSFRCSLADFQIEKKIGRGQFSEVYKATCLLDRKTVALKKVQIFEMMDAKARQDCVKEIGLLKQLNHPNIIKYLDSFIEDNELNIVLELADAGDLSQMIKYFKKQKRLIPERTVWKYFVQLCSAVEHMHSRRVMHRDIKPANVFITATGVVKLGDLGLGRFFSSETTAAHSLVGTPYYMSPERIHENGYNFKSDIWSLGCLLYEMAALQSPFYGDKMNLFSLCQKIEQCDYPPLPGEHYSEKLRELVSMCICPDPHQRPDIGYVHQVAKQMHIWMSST

[8] = target: Serine/threonine-protein kinase 38-like (Homo sapiens) (UniProt Q9Y2H1); assay: Inhibition of NDR2 in human PC3 cell lysates at 10 uM using desthiobiotin-tagged ATP probe AX9989 followed by trypsinization by LC/MS analysis
Chain of Serine/threonine-protein kinase 38-like (Homo sapiens) (Q9Y2H1 2-464 limits assumed): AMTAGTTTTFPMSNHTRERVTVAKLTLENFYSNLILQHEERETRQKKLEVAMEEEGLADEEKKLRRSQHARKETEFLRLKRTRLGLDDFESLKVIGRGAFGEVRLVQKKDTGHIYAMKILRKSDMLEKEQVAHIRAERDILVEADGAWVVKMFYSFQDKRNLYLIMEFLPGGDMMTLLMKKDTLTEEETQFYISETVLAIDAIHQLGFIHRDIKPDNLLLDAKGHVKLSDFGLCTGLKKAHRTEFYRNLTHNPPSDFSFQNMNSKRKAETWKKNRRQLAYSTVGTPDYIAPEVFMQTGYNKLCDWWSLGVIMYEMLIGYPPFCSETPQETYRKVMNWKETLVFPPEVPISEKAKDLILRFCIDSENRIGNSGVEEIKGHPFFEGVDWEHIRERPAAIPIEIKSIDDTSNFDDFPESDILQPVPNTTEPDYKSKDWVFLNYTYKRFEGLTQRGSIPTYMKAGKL

Compound | inhibition [1] | inhibition [2] | inhibition [3] | inhibition [4] | inhibition [5] | inhibition [6] | inhibition [7] | inhibition [8]
NC(=O)c1ccc2nc(N[C@H]3CC[C@H](O)CC3)c3nccn3c2c1 | < 35% | < 35% | < 35% | < 35% | < 35% | < 35% | < 35% | < 35%
O=C(NC1(Cc2ccc(F)cc2)CC1)c1ccc2nc(N[C@H]3CC[C@H](O)CC3)c3nccn3c2c1 | < 35% | < 35% | < 35% | < 35% | < 35% | < 35% | < 35% | < 35%
O=C(NC1(c2ccccc2)CCC1)c1ccc2nc(N[C@H]3CC[C@H](O)CC3)c3nccn3c2c1 | < 35% | < 35% | < 35% | < 35% | < 35% | < 35% | < 35% | < 35%
O=C(N[C@H](CO)c1ccccc1)c1ccc2nc(N[C@H]3CC[C@H](O)CC3)c3nccn3c2c1 | < 35% | < 35% | < 35% | < 35% | < 35% | < 35% | < 35% | < 35%
O=C(NC1(c2ccccc2)CC1)c1ccc2nc(N[C@H]3CC[C@H](O)CC3)c3nccn3c2c1 | < 35% | < 35% | < 35% | < 35% | < 35% | < 35% | < 35% | < 35%
O=C(NC1(c2ccc(F)cc2)CC1)c1ccc2nc(N[C@H]3CC[C@H](O)CC3)c3nccn3c2c1 | < 35% | < 35% | < 35% | < 35% | < 35% | < 35% | < 35% | < 35%

Next, values leading:

inhibition [1] | inhibition [2] | inhibition [3] | inhibition [4] | inhibition [5] | inhibition [6] | inhibition [7] | inhibition [8] | Compound
< 35% | < 35% | < 35% | < 35% | < 35% | < 35% | < 35% | < 35% | C[C@@H](NC(=O)c1ccc2nc(N[C@H]3CC[C@H](O)CC3)c3nccn3c2c1)c1ccccc1
< 35% | < 35% | < 35% | < 35% | < 35% | < 35% | < 35% | < 35% | CC[C@@H](NC(=O)c1ccc2nc(N[C@H]3CC[C@H](O)CC3)c3nccn3c2c1)c1ccccc1
< 35% | < 35% | < 35% | < 35% | < 35% | < 35% | < 35% | < 35% | C[C@H](NC(=O)c1ccc2nc(N[C@H]3CC[C@H](O)CC3)c3nccn3c2c1)c1ccccc1
< 35% | < 35% | < 35% | < 35% | < 35% | < 35% | < 35% | < 35% | CCC[C@@H](NC(=O)c1ccc2nc(N[C@H]3CC[C@H](O)CC3)c3nccn3c2c1)c1ccccc1
< 35% | < 35% | < 35% | < 35% | < 35% | < 35% | < 35% | < 35% | CC(C)(NC(=O)c1ccc2nc(N[C@H]3CC[C@H](O)CC3)c3nccn3c2c1)c1ccccc1
< 35% | < 35% | < 35% | < 35% | < 35% | < 35% | < 35% | < 35% | O=C(O)c1ccc2nc(N[C@H]3CC[C@H](O)CC3)c3nccn3c2c1
